Results on one molecule are retold here after patent publication US4517299A, “Acetylesterases” (Fujisawa Pharmaceutical Co., Ltd., priority 1980, dated 1985).

Assay [1] concerns Aureobasidium pullulans IFO 4466 Acetylesterase 4466-I (Enzyme solution A). Kind of assay: Determination of Km, hydrolysis of cephalosporin C to deacetylcephalosporin C (HPLC). The class given is biochemical. Conditions: 0.05M acetate buffer pH 4.0, 30° C., one hour, cephalosporin C sodium dihydrate 0.2-5%, read-out: Km (substrate cephalosporin C). The protocol: (§1) (In case that the substrate is cephalosporin C)
(§2) Km values of Acetylesterase 4466-I and Acetylesterase 4466-II were determined in the following method.
(§3) To 0.05M acetate buffer solution (pH 4.0) containing cephalosporin C sodium dihydrate in a various concentration (0.2-5%)(4.5 ml), was added enzyme solution (0.5 ml).
(§4) The reaction mixture was incubated on a shaker at 30° C. for an hour. Subsequently, produced deacetyl cephalosporin C and unreacted cephalosporin C were determined by high pressure liquid chromatography. Km values of each esterase were calculated in a conventional manner.

The subject of assay [2] is Aureobasidium pullulans IFO 4466 Acetylesterase 4466-II (Enzyme solution B). The description is as above. The class given is biochemical. Conditions: 0.05M acetate buffer pH 4.0, 30° C., one hour, cephalosporin C sodium dihydrate 0.2-5%, read-out: Km (substrate cephalosporin C). The protocol: as §1, §2, §3, §4

The structures appear in SMILES notation.

The term Km denotes the substrate concentration at which the rate is half of its maximum. Regarding `CC(=O)OCC1=C(C(=O)O)N2C(=O)[C@@H](NC(=O)CCC[C@@H](N)C(=O)O)[C@H]2SC1` [cephalosporin C], the Michaelis-Menten constant (Km) was 11.5 mM in assay [1] and 13.7 mM in assay [2].
